Test results taken from article PMC11823630, “In vitro potentiation of tetracyclines in Pseudomonas aeruginosa by RW01, a new cyclic peptide” (Antimicrobial Agents and Chemotherapy, 2024).
Values after ≈ are worked out from the molar mass of the structure shown.

Experiments:
Test in all cases: MIC, MHB microdilution
[1] = test system: P. aeruginosa PAO1, WT
[2] = test system: PAO1 mutant MIN8_4, pilZ(nt18InsT); conditions: Pseudomonas aeruginosa, PAO1, read-out: MIC, MHB microdilution
[3] = test system: PAO1 mutant MIN2_RW01_3, parS(V152A); conditions: Pseudomonas aeruginosa, PAO1, read-out: MIC, MHB microdilution

Structure (SMILES): CN(C)c1ccc(O)c2c1C[C@H]1C[C@H]3[C@H](N(C)C)C(O)=C(C(N)=O)C(=O)[C@@]3(O)C(O)=C1C2=O [Minocycline, minocycline]
- MIC of MIN + RW01, MHB microdilution ([1]; PAO1 WT, minocycline MIC in combination with RW01, listed as MIN): 0.5 to 1 mg/L
- MIC ([1]; Pseudomonas aeruginosa, PAO1, read-out: MIC, MHB microdilution): 4 to 8 mg/L (≈ 8.74 to 17.5 µM)
- MIC [2]: 16 mg/L (≈ 35 µM)
- MIC [3]: 16 mg/L (≈ 35 µM)
